Test results: US10059688B2, “Protein tyrosine kinase modulators and methods of use” (BETTA PHARMACEUTICALS CO., LTD., priority 2013, dated 2018)

Experiments:
EGFR (T790M) (h) = EGFR (T790M) (h) (Homo sapiens (Human), UniProt P00533, T790M); experiment: Kinase assay, single dose inhibition (Millipore, 33P-ATP filter binding); format: biochemical; conditions: 0.1 μM test compound, 10 μM ATP; remaining activity relative to DMSO control = 100%
Method: (§1) Assay conditions included 10 μM ATP and 100 nM test compounds.
(§2) All reactions are initiated by the addition of the MgATP mix. After incubation for 40 minutes at room temperature, the reaction is stopped by the addition of 3% phosphoric acid solution. 10 μL of the reaction is then spotted onto a P30 filtermat and washed three times for 5 minutes in 75 mM phosphoric acid and once in methanol prior to drying and scintillation counting. This assay is performed by Millipore. The experiment is carried out in duplicate. The value for the control sample (DMSO) was set to 100%, and the values for the compound-treated samples were expressed as activity relative to the control sample.

EGFR (L858R) (h) = EGFR (L858R) (h) (Homo sapiens (Human), UniProt P00533, L858R); experiment: as above; format: biochemical; conditions: 0.1 μM test compound, 10 μM ATP; remaining activity relative to DMSO control = 100%
Chain of EGFR (L858R) (h) (P00533 25-1210 L858R): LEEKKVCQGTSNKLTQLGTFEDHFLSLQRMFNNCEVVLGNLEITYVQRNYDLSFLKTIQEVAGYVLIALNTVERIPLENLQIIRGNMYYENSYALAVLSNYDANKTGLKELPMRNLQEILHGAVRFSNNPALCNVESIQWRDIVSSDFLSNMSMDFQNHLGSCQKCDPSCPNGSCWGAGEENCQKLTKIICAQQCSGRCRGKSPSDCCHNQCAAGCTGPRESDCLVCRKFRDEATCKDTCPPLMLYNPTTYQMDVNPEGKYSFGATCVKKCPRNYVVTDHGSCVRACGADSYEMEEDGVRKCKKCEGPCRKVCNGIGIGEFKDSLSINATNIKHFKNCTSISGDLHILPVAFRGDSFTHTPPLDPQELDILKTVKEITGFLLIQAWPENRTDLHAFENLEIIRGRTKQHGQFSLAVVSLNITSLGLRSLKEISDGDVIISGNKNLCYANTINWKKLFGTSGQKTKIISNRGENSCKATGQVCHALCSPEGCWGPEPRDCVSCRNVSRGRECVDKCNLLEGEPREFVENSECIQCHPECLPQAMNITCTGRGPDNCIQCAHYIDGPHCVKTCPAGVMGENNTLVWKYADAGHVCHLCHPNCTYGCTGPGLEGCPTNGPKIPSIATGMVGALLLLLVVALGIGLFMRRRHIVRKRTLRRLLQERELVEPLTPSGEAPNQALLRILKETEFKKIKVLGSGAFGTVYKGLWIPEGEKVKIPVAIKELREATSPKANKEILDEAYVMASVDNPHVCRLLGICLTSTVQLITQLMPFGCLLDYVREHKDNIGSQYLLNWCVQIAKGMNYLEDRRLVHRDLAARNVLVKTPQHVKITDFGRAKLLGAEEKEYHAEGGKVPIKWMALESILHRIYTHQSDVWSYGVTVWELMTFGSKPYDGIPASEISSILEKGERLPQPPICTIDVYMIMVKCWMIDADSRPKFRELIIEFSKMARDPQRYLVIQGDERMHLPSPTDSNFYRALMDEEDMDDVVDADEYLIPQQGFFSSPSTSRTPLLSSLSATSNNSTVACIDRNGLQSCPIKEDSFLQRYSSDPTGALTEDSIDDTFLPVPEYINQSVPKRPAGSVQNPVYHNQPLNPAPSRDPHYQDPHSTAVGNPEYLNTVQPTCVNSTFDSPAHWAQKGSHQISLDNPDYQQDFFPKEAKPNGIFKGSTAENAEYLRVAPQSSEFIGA

EGFR (T790M, L858R) (h) = EGFR (T790M, L858R) (h) (Homo sapiens (Human), UniProt P00533, L858R/T790M); experiment: as above; format: biochemical; conditions: 0.1 μM test compound, 10 μM ATP; remaining activity relative to DMSO control = 100%
Chain of EGFR (T790M, L858R) (h) (P00533 25-1210 T790M/L858R): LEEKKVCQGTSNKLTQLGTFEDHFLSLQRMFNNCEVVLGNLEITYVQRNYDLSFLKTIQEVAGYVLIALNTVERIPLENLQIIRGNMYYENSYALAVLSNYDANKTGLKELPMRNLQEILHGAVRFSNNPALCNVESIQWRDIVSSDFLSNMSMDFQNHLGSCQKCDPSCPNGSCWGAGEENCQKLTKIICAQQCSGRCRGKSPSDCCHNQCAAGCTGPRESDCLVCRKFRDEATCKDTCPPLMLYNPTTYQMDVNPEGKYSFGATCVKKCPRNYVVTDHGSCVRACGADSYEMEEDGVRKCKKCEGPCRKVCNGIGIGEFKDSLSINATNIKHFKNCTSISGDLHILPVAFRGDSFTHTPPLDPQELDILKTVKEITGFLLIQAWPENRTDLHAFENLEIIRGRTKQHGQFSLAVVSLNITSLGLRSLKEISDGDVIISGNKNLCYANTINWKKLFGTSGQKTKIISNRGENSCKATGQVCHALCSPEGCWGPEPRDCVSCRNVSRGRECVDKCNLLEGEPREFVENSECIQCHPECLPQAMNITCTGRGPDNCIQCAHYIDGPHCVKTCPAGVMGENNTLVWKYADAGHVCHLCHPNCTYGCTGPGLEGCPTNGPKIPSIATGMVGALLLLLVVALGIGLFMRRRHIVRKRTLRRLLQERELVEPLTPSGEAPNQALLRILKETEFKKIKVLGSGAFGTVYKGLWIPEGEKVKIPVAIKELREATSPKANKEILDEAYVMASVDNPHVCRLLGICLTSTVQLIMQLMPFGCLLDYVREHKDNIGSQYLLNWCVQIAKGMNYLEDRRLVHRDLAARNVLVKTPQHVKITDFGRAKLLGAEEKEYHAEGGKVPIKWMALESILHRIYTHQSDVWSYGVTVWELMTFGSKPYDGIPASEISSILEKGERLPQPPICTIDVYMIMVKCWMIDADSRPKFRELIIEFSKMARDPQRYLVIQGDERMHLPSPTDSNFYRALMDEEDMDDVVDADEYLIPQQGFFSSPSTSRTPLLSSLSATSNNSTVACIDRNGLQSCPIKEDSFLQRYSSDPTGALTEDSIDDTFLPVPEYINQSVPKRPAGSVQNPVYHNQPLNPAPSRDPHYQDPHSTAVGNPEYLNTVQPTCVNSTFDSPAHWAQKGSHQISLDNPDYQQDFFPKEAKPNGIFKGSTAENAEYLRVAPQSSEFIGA
Method: as §1, §2

EGFR (h) = EGFR (h) (Homo sapiens (Human), UniProt P00533); experiment: as above; format: biochemical; conditions: 0.1 μM test compound, 10 μM ATP; remaining activity relative to DMSO control = 100%
Chain of EGFR (h) (P00533 25-1210): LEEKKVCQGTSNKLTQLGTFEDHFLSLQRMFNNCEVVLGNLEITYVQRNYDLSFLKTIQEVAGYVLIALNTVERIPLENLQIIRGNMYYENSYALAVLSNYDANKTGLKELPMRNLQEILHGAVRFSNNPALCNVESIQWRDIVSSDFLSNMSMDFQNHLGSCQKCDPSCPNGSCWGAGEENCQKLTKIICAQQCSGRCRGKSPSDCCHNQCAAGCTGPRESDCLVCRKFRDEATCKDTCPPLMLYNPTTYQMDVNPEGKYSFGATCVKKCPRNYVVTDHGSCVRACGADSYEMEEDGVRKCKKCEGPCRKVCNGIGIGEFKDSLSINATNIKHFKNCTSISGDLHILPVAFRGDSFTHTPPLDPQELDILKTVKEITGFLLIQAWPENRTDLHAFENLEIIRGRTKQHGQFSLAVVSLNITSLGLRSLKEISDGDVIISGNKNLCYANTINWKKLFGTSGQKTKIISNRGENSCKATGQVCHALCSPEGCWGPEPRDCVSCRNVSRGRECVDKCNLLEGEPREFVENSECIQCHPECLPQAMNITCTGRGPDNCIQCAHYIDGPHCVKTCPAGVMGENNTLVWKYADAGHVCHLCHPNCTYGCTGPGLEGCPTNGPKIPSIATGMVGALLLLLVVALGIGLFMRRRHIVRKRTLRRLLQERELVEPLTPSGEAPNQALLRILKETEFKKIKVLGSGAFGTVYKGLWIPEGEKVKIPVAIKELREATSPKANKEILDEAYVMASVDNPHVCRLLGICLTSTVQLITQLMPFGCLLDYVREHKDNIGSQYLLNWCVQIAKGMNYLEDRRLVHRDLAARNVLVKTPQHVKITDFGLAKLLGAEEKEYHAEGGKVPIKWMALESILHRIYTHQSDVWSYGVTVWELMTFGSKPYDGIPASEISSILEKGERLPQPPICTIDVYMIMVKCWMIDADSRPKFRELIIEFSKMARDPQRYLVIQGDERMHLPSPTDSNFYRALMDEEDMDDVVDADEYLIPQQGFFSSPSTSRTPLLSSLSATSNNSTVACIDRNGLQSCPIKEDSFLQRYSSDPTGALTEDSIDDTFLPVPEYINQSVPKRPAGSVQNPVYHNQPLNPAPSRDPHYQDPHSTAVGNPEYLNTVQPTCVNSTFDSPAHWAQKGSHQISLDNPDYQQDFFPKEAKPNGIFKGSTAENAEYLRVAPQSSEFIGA

[1] = tested on: HCC827 (EGFR Del) NSCLC cells; experiment: Cell proliferation assay (MTS cell viability); format: cell-based; conditions: Homo sapiens, 72 h; HCC827 cells, 3 days of exposure, MTS
Method: Effects of test compounds on in vitro proliferation were measured by MTS cell viability assay.
Prepare test compounds in each well with a final medium volume of 200 μl;
Incubate for 3 days of exposure;
Prepare reagents following the instructions in the Cell Proliferation Assay kit (Promega);
Change to serum-free medium with a final volume of 100 l/well. Prepare a set of wells with medium only for background subtraction;
Add 20 μl MTS solution containing PMS to each well (final concentration of MTS will be 0.33 mg/ml);
Incubate 1 to 4 hours at 37° C. in a humidified, 5% CO2 atmosphere.
Record absorbance at 490 nm using VICTOR™ X5 plate reader (PerkinElmer).
All experimental points were set up in three wells and all experiments were repeated at least three times.

[2] = tested on: H1975 (EGFR L858R/T790M) NSCLC cells; experiment: Cell proliferation assay (MTS cell viability); format: cell-based; conditions: Homo sapiens, NCI-H1975, 72 h; H1975 cells, 3 days of exposure, MTS
ALK (h) = ALK (h) (Homo sapiens (Human), UniProt Q9UM73); experiment: Kinase assay, single dose inhibition (Millipore, 33P-ATP filter binding); format: biochemical; conditions: 0.1 μM test compound, 10 μM ATP, remaining activity relative to DMSO control = 100%
Method: as §1, §2

Chain of EGFR (T790M) (h) (P00533 25-1210 T790M): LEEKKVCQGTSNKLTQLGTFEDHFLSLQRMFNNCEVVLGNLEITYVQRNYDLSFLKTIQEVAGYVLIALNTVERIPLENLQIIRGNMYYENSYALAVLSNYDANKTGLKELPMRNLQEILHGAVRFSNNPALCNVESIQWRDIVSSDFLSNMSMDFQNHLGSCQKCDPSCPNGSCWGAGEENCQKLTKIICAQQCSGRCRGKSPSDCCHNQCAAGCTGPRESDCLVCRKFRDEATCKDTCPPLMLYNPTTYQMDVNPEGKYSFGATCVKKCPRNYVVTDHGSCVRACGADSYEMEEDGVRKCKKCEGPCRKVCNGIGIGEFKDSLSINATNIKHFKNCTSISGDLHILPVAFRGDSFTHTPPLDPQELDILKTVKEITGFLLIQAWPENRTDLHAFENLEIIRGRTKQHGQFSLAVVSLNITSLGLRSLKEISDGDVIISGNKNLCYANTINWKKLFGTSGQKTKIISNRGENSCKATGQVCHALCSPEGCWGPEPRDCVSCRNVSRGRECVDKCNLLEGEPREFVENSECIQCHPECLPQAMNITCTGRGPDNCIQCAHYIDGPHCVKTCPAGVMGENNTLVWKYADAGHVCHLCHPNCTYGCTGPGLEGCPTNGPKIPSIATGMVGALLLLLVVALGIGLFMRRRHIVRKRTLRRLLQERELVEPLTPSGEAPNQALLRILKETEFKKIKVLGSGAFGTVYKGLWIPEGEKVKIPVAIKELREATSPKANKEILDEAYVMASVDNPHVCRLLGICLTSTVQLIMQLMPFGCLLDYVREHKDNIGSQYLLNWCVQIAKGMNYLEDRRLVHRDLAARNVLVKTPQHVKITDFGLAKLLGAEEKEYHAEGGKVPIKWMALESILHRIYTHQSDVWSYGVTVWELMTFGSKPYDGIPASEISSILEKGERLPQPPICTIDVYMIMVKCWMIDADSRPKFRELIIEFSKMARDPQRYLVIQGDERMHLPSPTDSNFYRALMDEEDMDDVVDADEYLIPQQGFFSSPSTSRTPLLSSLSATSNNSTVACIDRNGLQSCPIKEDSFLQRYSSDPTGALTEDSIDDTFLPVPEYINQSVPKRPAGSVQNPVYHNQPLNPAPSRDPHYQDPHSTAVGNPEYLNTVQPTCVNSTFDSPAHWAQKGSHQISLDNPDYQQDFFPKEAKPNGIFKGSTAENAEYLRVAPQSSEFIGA

Row | Compound | IC50 [1] | IC50 [2] | also measured
1 | C=CC(=O)Nc1cccc(Nc2nc(Nc3ccc(N4CCN(C(C)=O)CC4)cc3OC)ncc2C(F)(F)F)c1 [CO-1686, reference compound] | – | – | Activity (control) % EGFR (T790M) (h) (EGFR (T790M) (h)): 21%; Activity (control) % EGFR (L858R) (h) (EGFR (L858R) (h)): 97%; Activity (control) % EGFR (T790M, L858R) (h) (EGFR (T790M, L858R) (h)): 7%; Activity (control) % EGFR (h) (EGFR (h)): 92%
2 | CCOC(=O)C(=O)c1ccccc1Nc1nc(Nc2ccc(N3CCC(N(C)C)CC3)cc2OC)ncc1Cl [Example 1, ethyl 2-(2-(5-chloro-2-(4-(4-(dimethylamino)piperidin-1-yl)-2-methoxyphenylamino)pyrimidin-4-ylamino)phenyl)-2-oxoacetate] | > 3 µM | > 3 µM | –
3 | COc1cc(N2CCC(N(C)C)CC2)ccc1Nc1ncc(Cl)c(Nc2ccccc2C(=O)C(=O)O)n1 [Example 2, 2-(2-(5-chloro-2-(4-(4-(dimethylamino)piperidin-1-yl)-2-methoxyphenylamino)pyrimidin-4-ylamino)phenyl)-2-oxoacetic acid] | > 3 µM | > 3 µM | –
4 | COc1cc(N2CCN(C)CC2)ccc1Nc1ncc(C(F)(F)F)c(Nc2ccccc2C(=O)C(N)=O)n1 [Example 10, 2-(2-((2-((2-methoxy-4-(4-methylpiperazin-1-yl)phenyl)amino)-5-(trifluoromethyl)pyrimidin-4-yl)amino)phenyl)-2-oxoacetamide] | > 3 µM | > 3 µM | –
5 | COc1cc(N2CCC(N(C)C)CC2)ccc1Nc1ncc(C(F)(F)F)c(Nc2ccccc2C(=O)C(=O)O)n1 [Example 15, 2-(2-((2-((4-(4-(dimethylamino)piperidin-1-yl)-2-methoxyphenyl)amino)-5-(trifluoromethyl)pyrimidin-4-yl)amino)phenyl)-2-oxoacetic acid] | > 3 µM | > 3 µM | –
6 | COc1cc(N2CCC(N(C)C)CC2)ccc1Nc1ncc(Cl)c(Nc2ccccc2C(=O)C(=O)N2CCOCC2)n1 [Example 18, 1-(2-((5-chloro-2-((4-(4-(dimethylamino)piperidin-1-yl)-2-methoxyphenyl)amino)pyrimidin-4-yl)amino)phenyl)-2-morpholinoethane-1,2-dione] | > 3 µM | 2.86 µM | –
7 | COc1cc(N2CCC(N(C)C)CC2)ccc1Nc1ncc(Cl)c(Nc2ccccc2C(=O)C(=O)NC2CNC2)n1 [Example 24, N-(azetidin-3-yl)-2-(2-((5-chloro-2-((4-(4-(dimethylamino)piperidin-1-yl)-2-methoxyphenyl)amino)pyrimidin-4-yl)amino)phenyl)-2-oxoacetamide] | > 3 µM | > 3 µM | –
8 | COc1cc(N2CCC(N(C)C)CC2)ccc1Nc1ncc(Cl)c(Nc2ccccc2C(=O)C(=O)NC2CC2)n1 [Example 25, 2-(2-((5-chloro-2-((4-(4-(dimethylamino)piperidin-1-yl)-2-methoxyphenyl)amino)pyrimidin-4-yl)amino)phenyl)-N-cyclopropyl-2-oxoacetamide] | > 3 µM | > 3 µM | –
9 | C=C(CN1CCOCC1)C(=O)Nc1ccc(OC)c(Nc2ncc(Cl)c(Nc3ccccc3C(=O)C(=O)N(C)C)n2)c1 [Example 41, N-(3-(5-chloro-4-(2-(2-(dimethylamino)-2-oxoacetyl)phenylamino)pyrimidin-2-ylamino)-4-methoxyphenyl)-2-(morpholinomethyl)acrylamide] | – | – | Activity (control) % EGFR (T790M) (h) (EGFR (T790M) (h)): 2%; Activity (control) % EGFR (L858R) (h) (EGFR (L858R) (h)): 39%; remaining activity at 0.1 µM (ALK (h); 40 min): 21%; Activity (control) % EGFR (T790M, L858R) (h) (EGFR (T790M, L858R) (h)): 3%; Activity (control) % EGFR (h) (EGFR (h)): 76%
10 | COc1cc(N2CCOCC2)ccc1Nc1ncc(Cl)c(Nc2ccccc2C(=O)C(=O)N(C)C)n1 [Example 48, 2-(2-(5-chloro-2-(2-methoxy-4-morpholinophenylamino)pyrimidin-4-ylamino)phenyl)-N,N-dimethyl-2-oxoacetamide] | 1.94 µM | 1.95 µM | –
11 | COc1cc(N2CCN(C)CC2)ccc1Nc1ncc(Cl)c(Nc2ccccc2C(=O)C(=O)NC2CC2)n1 [Example 49, 2-(2-(5-chloro-2-(2-methoxy-4-(4-methylpiperazin-1-yl)phenylamino)pyrimidin-4-ylamino)phenyl)-N-cyclopropyl-2-oxoacetamide] | > 3 µM | > 3 µM | –
12 | CCC(=O)N1CCN(c2ccc(Nc3ncc(Cl)c(Nc4ccccc4C(=O)C(=O)NC)n3)c(OC)c2)CC1 [Example 54, 2-(2-(5-chloro-2-(2-methoxy-4-(4-propionylpiperazin-1-yl)phenylamino)pyrimidin-4-ylamino)phenyl)-N-methyl-2-oxoacetamide] | > 3 µM | > 3 µM | –
13 | C=CC(=O)N1CC(NC(=O)C(=O)c2ccccc2Nc2nc(Nc3ccc(N4CCN(C)CC4)cc3OC)ncc2Cl)C1 [Example 55, N-(1-acryloylazetidin-3-yl)-2-(2-(5-chloro-2-(2-methoxy-4-(4-methylpiperazin-1-yl)phenylamino)pyrimidin-4-ylamino)phenyl)-2-oxoacetamide] | > 3 µM | > 3 µM | –
14 | C=CC(=O)N1CCC(NC(=O)C(=O)c2ccccc2Nc2nc(Nc3ccc(N4CCN(C)CC4)cc3OC)ncc2Cl)CC1 [Example 56, N-(1-acryloylpiperidin-4-yl)-2-(2-(5-chloro-2-(2-methoxy-4-(4-methylpiperazin-1-yl)phenylamino)pyrimidin-4-ylamino)phenyl)-2-oxoacetamide] | > 3 µM | > 3 µM | –
15 | COc1ccc(NC(=O)C=C(C)C)cc1Nc1ncc(Cl)c(Nc2ccccc2C(=O)C(=O)N(C)C)n1 [Example 71, N-(3-(5-chloro-4-(2-(2-(dimethylamino)-2-oxoacetyl)phenylamino)pyrimidin-2-ylamino)-4-methoxyphenyl)-3-methylbut-2-enamide] | – | 0.99 µM | –
16 | COc1ccc(NC(=O)/C=C/CN2CCCCC2)cc1Nc1ncc(Cl)c(Nc2ccccc2C(=O)C(=O)N(C)C)n1 [Example 72, (E)-N-(3-(5-chloro-4-(2-(2-(dimethylamino)-2-oxoacetyl)phenylamino)pyrimidin-2-ylamino)-4-methoxyphenyl)-4-(piperidin-1-yl)but-2-enamide] | – | – | Activity (control) % EGFR (T790M) (h) (EGFR (T790M) (h)): 54%; Activity (control) % EGFR (L858R) (h) (EGFR (L858R) (h)): 28%; Activity (control) % ALK (h) (ALK (h)): 14%; Activity (control) % EGFR (T790M, L858R) (h) (EGFR (T790M, L858R) (h)): 9%; Activity (control) % EGFR (h) (EGFR (h)): 102%
17 | C=C(CN1CCCCC1)C(=O)Nc1ccc(OC)c(Nc2ncc(Cl)c(Nc3ccccc3C(=O)C(=O)N(C)C)n2)c1 [Example 73, N-(3-(5-chloro-4-(2-(2-(dimethylamino)-2-oxoactyl)phenylamino)pyrimidin-2-ylamino)-4-methoxyphenyl)-2-(piperidin-1-ylmethyl)acrylamide] | – | – | Activity (control) % EGFR (T790M) (h) (EGFR (T790M) (h)): 3%; Activity (control) % EGFR (L858R) (h) (EGFR (L858R) (h)): 37%; Activity (control) % ALK (h) (ALK (h)): 17%; Activity (control) % EGFR (T790M, L858R) (h) (EGFR (T790M, L858R) (h)): 3%; Activity (control) % EGFR (h) (EGFR (h)): 67%
18 | C=CC(=O)N1CCOc2ccc(Nc3ncc(Cl)c(Nc4ccccc4C(=O)C(=O)N(C)C)n3)cc21 [Example 87, 2-(2-(2-(4-acryloyl-3,4-dihydro-2H-benzo[b][1,4]oxazin-6-ylamino)-5-chloropyrimidin-4-ylamino)phenyl)-N,N-dimethyl-2-oxoacetamide] | – | – | Activity (control) % ALK (h) (ALK (h)): 5%
19 | N-(5-(5-chloro-4-(2-(2-(dimethylamino)-2-oxoactyl)phenylamino)pyrimidin-2-ylamino)-2-(2-(dimethylamino)ethoxy)phenyl)acrylamide [Example 115] | – | – | Activity (control) % ALK (h) (ALK (h)): 6%
